Test results taken from ChEMBL document CHEMBL1201862, “PubChem BioAssay data set” (2004).
Active and inactive are the calls of the source.

Experiments:
HEK293 [1] = assay: NOD1 signaling inhibitors, primary screen, cell-based, luminescence, uHTS (AID 1578); format: functional; settings: Homo sapiens
[2] = system: Streptococcus sp. 'group A'; assay: growth inhibition of control SK(-) GAS strain, dose response, counter-screen for streptokinase expression inhibitor project, luminescence, kanamycin, BacTiterGlo, confirmation (AID 1900); format: functional, organism-based
HEK293 [3] = assay: cells; format: functional, cell-based; settings: Homo sapiens
Streptokinase A = biological target: T1, Streptokinase A (Streptococcus pyogenes serotype M1, UniProt P10520); assay: S. pyogenes streptokinase expression inhibitors, potency, dose response, plasminogen activation absorbance, OD405 (AID 1914); format: functional, Streptococcus pyogenes M1 GAS;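 also: secreted streptokinase activity via plasminogen activation per viability signal from cell pellet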
T1 sequence (P10520 whole entry): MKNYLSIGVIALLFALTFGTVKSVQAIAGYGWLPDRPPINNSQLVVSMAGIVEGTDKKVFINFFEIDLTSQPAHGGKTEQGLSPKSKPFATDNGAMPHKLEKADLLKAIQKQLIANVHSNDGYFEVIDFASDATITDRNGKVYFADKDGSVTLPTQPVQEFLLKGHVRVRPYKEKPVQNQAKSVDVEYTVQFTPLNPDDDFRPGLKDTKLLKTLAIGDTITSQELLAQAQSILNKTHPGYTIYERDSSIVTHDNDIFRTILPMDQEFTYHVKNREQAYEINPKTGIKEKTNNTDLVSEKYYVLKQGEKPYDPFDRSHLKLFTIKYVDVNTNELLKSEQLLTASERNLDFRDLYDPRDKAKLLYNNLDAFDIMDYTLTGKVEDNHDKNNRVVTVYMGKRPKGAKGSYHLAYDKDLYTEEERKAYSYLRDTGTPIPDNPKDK

HEK293 [4] = assay: cells; format: functional, cell-based; settings: Homo sapiens; remark: listed apart in the source
HEK293 [5] = assay: NOD2 signaling inhibitors in MDP-stimulated cells, cell-based, uHTS, luminescence (AID 2001); format: functional; settings: Homo sapiens
Streptococcus = assay: Group A Streptococcus viability loss, dose response, counter-screen for streptokinase expression inhibitor project, luminescence, BacTiterGlo (AID 1915); format: functional, organism-based;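 also: potency for reduction of bacterial viability or growth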
Caspase-3 = biological target: T2, Caspase-3 (Homo sapiens, UniProt P42574); format: functional;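 also: Dose-response selectivity test against caspase-3 for candidate inhibitors of sentrin-specific proteases (SENPs)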
T2 sequence (P42574 whole entry): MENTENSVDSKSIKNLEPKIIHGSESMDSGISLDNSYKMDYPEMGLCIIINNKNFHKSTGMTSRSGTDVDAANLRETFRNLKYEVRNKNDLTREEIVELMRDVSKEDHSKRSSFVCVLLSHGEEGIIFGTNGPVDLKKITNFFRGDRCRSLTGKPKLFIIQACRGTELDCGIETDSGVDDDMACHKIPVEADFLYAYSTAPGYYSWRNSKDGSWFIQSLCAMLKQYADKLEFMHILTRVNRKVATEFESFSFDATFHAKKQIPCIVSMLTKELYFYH

[6] = biological target: T3, Sentrin-specific protease 7 (Homo sapiens, UniProt Q9BQF6); format: functional;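 also: Luminescence-based dose-response confirmation of ultra-high-throughput screening hits, measuring inhibition of SENP7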
T3 sequence (Q9BQF6 whole entry): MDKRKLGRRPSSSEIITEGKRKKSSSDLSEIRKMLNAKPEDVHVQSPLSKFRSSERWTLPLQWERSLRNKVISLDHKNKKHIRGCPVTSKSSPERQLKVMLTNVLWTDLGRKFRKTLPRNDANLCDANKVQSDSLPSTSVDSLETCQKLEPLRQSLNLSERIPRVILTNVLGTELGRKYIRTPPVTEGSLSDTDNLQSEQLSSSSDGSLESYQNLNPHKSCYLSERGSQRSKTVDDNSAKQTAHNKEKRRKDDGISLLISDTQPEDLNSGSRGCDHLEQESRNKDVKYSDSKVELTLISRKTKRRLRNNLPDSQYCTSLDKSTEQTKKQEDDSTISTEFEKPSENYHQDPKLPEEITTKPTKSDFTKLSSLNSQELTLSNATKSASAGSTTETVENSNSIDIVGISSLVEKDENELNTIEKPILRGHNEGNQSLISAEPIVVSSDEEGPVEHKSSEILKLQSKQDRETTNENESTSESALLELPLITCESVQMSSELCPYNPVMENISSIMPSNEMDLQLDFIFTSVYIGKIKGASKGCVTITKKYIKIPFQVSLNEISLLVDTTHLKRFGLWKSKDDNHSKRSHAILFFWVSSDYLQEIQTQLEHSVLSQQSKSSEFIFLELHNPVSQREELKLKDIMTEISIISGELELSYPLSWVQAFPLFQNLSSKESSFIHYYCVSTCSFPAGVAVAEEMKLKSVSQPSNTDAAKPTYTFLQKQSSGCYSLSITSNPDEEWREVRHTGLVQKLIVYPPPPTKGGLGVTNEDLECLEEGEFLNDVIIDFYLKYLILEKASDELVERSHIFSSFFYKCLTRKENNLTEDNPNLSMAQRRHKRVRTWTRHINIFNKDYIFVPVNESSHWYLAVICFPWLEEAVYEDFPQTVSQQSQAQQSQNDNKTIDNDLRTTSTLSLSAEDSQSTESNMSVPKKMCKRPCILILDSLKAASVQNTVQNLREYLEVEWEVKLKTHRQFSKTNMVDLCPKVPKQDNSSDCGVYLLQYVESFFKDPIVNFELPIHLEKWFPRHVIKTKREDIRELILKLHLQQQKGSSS

[7] = biological target: T4, Sentrin-specific protease 6 (Homo sapiens, UniProt Q9GZR1); format: functional;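 also: Luminescence-based dose-response confirmatory assay of SENP6 inhibition, following up an ultra-high-throughput screen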
T4 sequence (Q9GZR1 whole entry): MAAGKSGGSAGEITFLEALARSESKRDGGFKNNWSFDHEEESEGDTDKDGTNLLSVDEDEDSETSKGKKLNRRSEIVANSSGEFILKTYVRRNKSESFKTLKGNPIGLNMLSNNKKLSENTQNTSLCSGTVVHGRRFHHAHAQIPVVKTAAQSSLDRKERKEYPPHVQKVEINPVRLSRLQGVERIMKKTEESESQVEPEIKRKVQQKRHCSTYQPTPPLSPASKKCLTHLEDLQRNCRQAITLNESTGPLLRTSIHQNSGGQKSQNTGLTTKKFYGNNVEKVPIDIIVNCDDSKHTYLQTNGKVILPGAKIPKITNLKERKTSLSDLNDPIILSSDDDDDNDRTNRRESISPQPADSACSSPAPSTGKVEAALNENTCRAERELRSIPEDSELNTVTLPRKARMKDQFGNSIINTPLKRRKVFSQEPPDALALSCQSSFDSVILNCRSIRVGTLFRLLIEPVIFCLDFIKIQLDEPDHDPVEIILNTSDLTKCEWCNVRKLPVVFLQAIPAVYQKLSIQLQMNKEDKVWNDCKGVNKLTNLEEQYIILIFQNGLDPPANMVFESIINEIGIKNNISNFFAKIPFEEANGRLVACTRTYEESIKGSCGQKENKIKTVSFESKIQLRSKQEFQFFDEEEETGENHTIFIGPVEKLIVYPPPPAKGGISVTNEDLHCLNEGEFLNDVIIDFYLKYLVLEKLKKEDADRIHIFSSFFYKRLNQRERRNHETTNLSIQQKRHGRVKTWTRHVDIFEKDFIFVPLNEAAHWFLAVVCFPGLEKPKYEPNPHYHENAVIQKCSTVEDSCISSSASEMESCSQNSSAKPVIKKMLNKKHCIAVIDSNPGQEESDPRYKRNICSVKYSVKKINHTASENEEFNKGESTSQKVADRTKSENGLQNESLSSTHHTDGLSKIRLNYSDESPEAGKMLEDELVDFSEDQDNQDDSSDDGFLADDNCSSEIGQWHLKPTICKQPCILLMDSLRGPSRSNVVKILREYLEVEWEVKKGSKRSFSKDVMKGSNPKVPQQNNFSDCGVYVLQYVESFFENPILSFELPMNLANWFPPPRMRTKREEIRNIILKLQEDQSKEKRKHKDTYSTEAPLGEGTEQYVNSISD

[8] = biological target: T5, Sentrin-specific protease 8 (Homo sapiens, UniProt Q96LD8); format: functional;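 also: luminescence read-out of SENP8 inhibition, dose-response confirmation following an ultra-high-throughput screen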
T5 sequence (Q96LD8 whole entry): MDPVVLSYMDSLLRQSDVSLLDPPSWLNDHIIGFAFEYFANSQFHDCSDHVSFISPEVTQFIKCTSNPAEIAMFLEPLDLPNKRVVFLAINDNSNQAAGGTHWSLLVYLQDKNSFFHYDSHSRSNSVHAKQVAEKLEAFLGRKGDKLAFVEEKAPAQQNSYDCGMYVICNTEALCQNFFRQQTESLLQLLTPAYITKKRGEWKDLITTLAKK

[9] = Shn3 3'UTR reporter inhibitors, dose response, cell-based, Clone20 osteoblasts, firefly luciferase, cherry-picked (AID 624132); format: functional;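 also: firefly luciferase luminescence from reporter carrying the Shn3 3'UTR in osteoblasts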
[10] = HepG2 cell cytotoxicity, dose response, cytotoxicity control for Shn3 inhibitor project, CellTiter-Glo, cherry-picked (AID 624134); format: functional, cell-based
[11] = control 3'UTR Renilla luciferase suppression, dose response, counter-screen for Shn3 inhibitor project, cell-based, Clone20-Shn3RL, cherry-picked (AID 624133); format: functional
Cytochrome P450 2C9 = Cytochrome P450 2C9 (Homo sapiens, UniProt P11712)
[12] = inhibitors of firefly luciferase expression or activity, dose response, H4 neuroglioma cells, luminescence (AID 1990); format: functional, cell-based
[13] = Luminescence Cell-Based Dose Response HTS to Identify Inhibitors of 5'UTR Stem-Loop Driven Prion Protein mRNA Translation in H4 Neuroglioblastoma Cells. [Related pubchem assays: 1827 (Project Summary), 1813 (Primary HTS)]; format: functional
[14] = inhibitors of SNCA 5'UTR-driven reporter translation, confirmation, H4 neuroglioma cells, luminescence (AID 1988); format: functional, cell-based
Cytochrome P450 2C19 = Cytochrome P450 2C19 (Homo sapiens, UniProt P33261); assay: Cytochrome panel assay with activity outcomes. Panel member name: p450-cyp2c19 Compounds with AC50 equal or less than 10 uM are considered active; format: functional; settings: read-out: AC50
Vero = assay: cells; format: functional; settings: Chlorocebus sabaeus
[15] = growth suppression of PTEN-null colon cells, dose response, cell-based, HCT116 PTEN knockout (AID 1047); format: functional;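 also: HCT116 colon tumor cells with PTEN knocked out; cells exposed to compound for 60 hours before readout; potency for loss of cell viability measured by luminescence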
[16] = growth suppression of beta-catenin-knockout colon cells, dose response, cell-based, HCT116, human colon tumor (AID 1045); format: functional;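 also: HCT116 colon tumor cells with beta catenin knocked out; cells exposed to compound for 60 hours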
cells = format: functional
[17] = microbe, parasite or virus in culture; format: functional; settings: Mycobacterium tuberculosis

Sequence of Cytochrome P450 2C9 (P11712 whole entry): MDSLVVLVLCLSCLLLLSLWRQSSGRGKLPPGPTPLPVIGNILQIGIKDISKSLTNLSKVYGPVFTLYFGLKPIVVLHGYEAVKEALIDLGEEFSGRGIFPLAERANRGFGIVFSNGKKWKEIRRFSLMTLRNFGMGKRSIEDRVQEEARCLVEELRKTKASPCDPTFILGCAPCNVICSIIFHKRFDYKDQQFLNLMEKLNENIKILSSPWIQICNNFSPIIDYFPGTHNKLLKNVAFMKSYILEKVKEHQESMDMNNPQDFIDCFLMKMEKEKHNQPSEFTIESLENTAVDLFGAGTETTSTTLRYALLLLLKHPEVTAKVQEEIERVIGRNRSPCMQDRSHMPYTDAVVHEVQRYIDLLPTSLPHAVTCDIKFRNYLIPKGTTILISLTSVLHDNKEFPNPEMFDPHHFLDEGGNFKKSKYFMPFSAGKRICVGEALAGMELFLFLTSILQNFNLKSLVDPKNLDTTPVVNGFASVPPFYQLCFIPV
Sequence of Cytochrome P450 2C19 (P33261 whole entry): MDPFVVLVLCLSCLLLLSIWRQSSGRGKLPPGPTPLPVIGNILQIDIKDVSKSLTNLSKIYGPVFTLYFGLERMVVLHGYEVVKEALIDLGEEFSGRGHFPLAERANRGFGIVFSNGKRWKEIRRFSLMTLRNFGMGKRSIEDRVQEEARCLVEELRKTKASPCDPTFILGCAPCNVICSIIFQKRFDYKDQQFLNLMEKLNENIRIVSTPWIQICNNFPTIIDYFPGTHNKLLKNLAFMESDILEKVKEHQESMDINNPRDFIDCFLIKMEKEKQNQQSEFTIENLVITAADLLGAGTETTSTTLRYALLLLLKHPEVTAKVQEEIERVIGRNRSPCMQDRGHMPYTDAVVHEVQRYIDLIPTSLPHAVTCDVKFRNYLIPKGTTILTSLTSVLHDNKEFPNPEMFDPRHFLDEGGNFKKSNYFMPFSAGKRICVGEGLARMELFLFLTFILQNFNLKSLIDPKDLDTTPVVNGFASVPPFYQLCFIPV

Cn1c(O)c(N=NC(S)=Nc2ccccc2F)c2cc(S(=O)(=O)N3CCOCC3)ccc21
EC50 (HEK293 [1]): > 20 µM (inactive) | EC50 [2]: 7.47 µM (active) | IC50 (HEK293 [3]): 19.1 µM (active) | EC50 (Streptokinase A): > 150 µM (not active) | IC50 (HEK293 [4]): > 20 µM (inactive) | IC50 (HEK293 [5]): 9.77 µM (active) | EC50 (Streptococcus): 44.2 µM (active)

O=c1c2ccccc2nnn1COc1cccc(Cl)c1
IC50 (Caspase-3): 16.1 µM (active) | IC50 [6]: 6.41 µM (active) | IC50 [7]: 34 µM (active) | IC50 [8]: 6.62 µM (active)

CCc1c(C)nc2ncnn2c1NCCc1ccc(Cl)cc1
AC50 [9]: 2.17 µM (active) | AC50 [10]: 60.2 µM (active) | AC50 [11]: 3.82 µM (active)

COc1cccc(/C=C2\CCC(C3CCCC3)C2=O)c1 (stereo not drawn)
IC50 (Caspase-3): 27.3 µM (active) | IC50 [6]: 11.8 µM (active) | IC50 [7]: 25.5 µM (active) | IC50 [8]: 33.4 µM (active)

Cc1cccc(CNc2cc(-c3cccc(NS(C)(=O)=O)c3)ncn2)c1
AC50 (Cytochrome P450 2C9): inconclusive

CC(=O)Nc1ccc(C#Cc2ccc(NC(C)=O)cc2)cc1
EC50 [12]: 16.5 µM (active) | EC50 [2]: 0.953 µM (active) | EC50 [13]: 10.5 µM (active) | EC50 [14]: 8.38 µM (active) | EC50 (Streptokinase A): > 150 µM (not active) | EC50 (Streptococcus): 9.38 µM (active) | AC50 (Cytochrome P450 2C19): 0.00631 µM (inconclusive) | AC50 (Cytochrome P450 2C9): inconclusive

O=C(CC1(O)C(=O)N(Cc2cccc3ccccc23)c2ccccc21)c1cccnc1 (stereo not drawn)
CC50 (Vero): > 25 µM (active)

Cc1cccc(Nc2nnc(SCC(=O)NC(=O)Nc3ccc4c(c3)OCCO4)s2)c1
EC50 [15]: 13 µM (active) | EC50 [16]: 9.93 µM (active) | CC50 (Vero): > 25 µM (active)

CN(Cc1ccco1)c1cc(-c2cccc(C#N)c2)ncn1
AC50 (Cytochrome P450 2C9): inconclusive

COc1ccc(OC(=O)c2cc3ccccc3o2)cc1
IC50 (Caspase-3): 33 µM (active) | IC50 [6]: 5.34 µM (active) | IC50 [7]: > 100 µM (inactive) | IC50 [8]: > 100 µM (inactive) | IC50 (cells): 16.6 µM (active)

Cc1ccc(NC(=O)CSc2ccc3c(c2)OCCO3)c(O)c1
AC50 [9]: 0.343 µM (active) | AC50 [10]: 7.27 µM (active) | AC50 [11]: 0.525 µM (active)

Cc1ccc(S(C)=NS(=O)(=O)c2ccc(C)cc2)cc1 (stereo not drawn)
AC50 (Cytochrome P450 2C19): 7.08 µM (inconclusive) | AC50 (Cytochrome P450 2C9): inconclusive

CCc1ccccc1NC(=O)c1ccc(-n2c(C)ccc2C)cc1
AC50 (Cytochrome P450 2C9): inconclusive

O=C(NC1C2CC3CC(C2)CC1C3)c1ccc(N2CCNCC2)c([N+](=O)[O-])c1 (stereo not drawn)
CC50 (Vero): > 25 µM (active)

Cc1ccc(F)cc1CNC(=O)c1cc(COc2ccc3ncccc3c2)on1
CC50 [17]: > 40 µM (active) | AC50 [9]: 4.88 µM (active) | AC50 [10]: 6.33 µM (active) | AC50 [11]: 4.3 µM (active)

O=C(C=Cc1ccccn1)c1ccccc1
CC50 (Vero): 9.58 µM (active)

Cc1cccc(C(=O)Nc2cccc(C(=O)N/N=C/c3ccc4c(c3)OCO4)c2)c1
IC50 (Caspase-3): 13 µM (active) | IC50 [6]: 14.2 µM (active) | IC50 [7]: 15.2 µM (active) | IC50 [8]: 35 µM (active)
